Laboratory results: the supplement of paper PMC13380429

What was measured:
Settings in all cases: 72 h
Vero E6 [1] = assay: drug sensitivity score (DSS) for viability; higher = more toxic; extreme values may be limits of the assay
U2OS [2] = assay: as above
Calu-3 [3] = assay: as above
HepG2 [4] = assay: as above
Vero E6 [5] = assay: relative viability EC50 (midpoint between 100% and the lowest measured viability); higher = less toxic
U2OS [6] = assay: as above
Calu-3 [7] = assay: as above
HepG2 [8] = assay: as above
Vero E6 [9] = assay: cell viability relative to DMSO; higher = less toxic
U2OS [10] = assay: as above
Calu-3 [11] = assay: as above
HepG2 [12] = assay: as above
Caco-2 [13] = assay: drug sensitivity score (DSS) for viability; higher = more toxic; extreme values may be limits of the assay
Caco-2 [14] = assay: cell viability relative to DMSO; higher = less toxic
Caco-2 [15] = assay: relative viability EC50 (midpoint between 100% and the lowest measured viability); higher = less toxic

| SMILES | drug sensitivity score (Vero E6 [1]) | drug sensitivity score (U2OS [2]) | drug sensitivity score (Calu-3 [3]) | drug sensitivity score (HepG2 [4]) | relative viability EC50 (Vero E6 [5]) [µM] | relative viability EC50 (U2OS [6]) [µM] | relative viability EC50 (Calu-3 [7]) [µM] | relative viability EC50 (HepG2 [8]) [µM] | cell viability (Vero E6 [9]; 1 nM) [%] | cell viability (Vero E6 [9]; 10 nM) [%] | cell viability (Vero E6 [9]; 100 nM) [%] | cell viability (Vero E6 [9]; 1000 nM) [%] | cell viability (Vero E6 [9]; 10000 nM) [%] | cell viability (U2OS [10]; 1 nM) [%] | cell viability (U2OS [10]; 10 nM) [%] | cell viability (U2OS [10]; 100 nM) [%] | cell viability (U2OS [10]; 1000 nM) [%] | cell viability (U2OS [10]; 10000 nM) [%] | cell viability (Calu-3 [11]; 1 nM) [%] | cell viability (Calu-3 [11]; 10 nM) [%] | cell viability (Calu-3 [11]; 100 nM) [%] | cell viability (Calu-3 [11]; 1000 nM) [%] | cell viability (Calu-3 [11]; 10000 nM) [%] | cell viability (HepG2 [12]; 1 nM) [%] | cell viability (HepG2 [12]; 10 nM) [%] | cell viability (HepG2 [12]; 100 nM) [%] | cell viability (HepG2 [12]; 1000 nM) [%] | cell viability (HepG2 [12]; 10000 nM) [%] | drug sensitivity score (Caco-2 [13]) | cell viability (Caco-2 [14]; 1 nM) [%] | cell viability (Caco-2 [14]; 10 nM) [%] | cell viability (Caco-2 [14]; 100 nM) [%] | cell viability (Caco-2 [14]; 1000 nM) [%] | cell viability (Caco-2 [14]; 10000 nM) [%] | relative viability EC50 (Caco-2 [15]) [µM] |
| --- | --- | --- | --- | --- | --- | --- | --- | --- | --- | --- | --- | --- | --- | --- | --- | --- | --- | --- | --- | --- | --- | --- | --- | --- | --- | --- | --- | --- | --- | --- | --- | --- | --- | --- | --- |
| N=C(N)NCCC[C@@H](NC(=O)[C@@H]1CCCN1C(=O)[C@@H]1CSSCCC(=O)N[C@@H](Cc2ccc(O)cc2)C(=O)N[C@@H](Cc2ccccc2)C(=O)N[C@@H](CCC(N)=O)C(=O)N[C@@H](CC(N)=O)C(=O)N1)C(=O)NCC(N)=O [desmopressin-acetate] | 0 | 0 | 0 | 0 | > 10 | > 10 | > 10 | > 10 | 105 | 108 | 106 | 101 | 99.4 | 97.5 | 93.8 | 96.6 | 96.3 | 100 | 101 | 92.7 | 110 | 93.4 | 102 | 106 | 96.2 | 110 | 107 | 106 |  |  |  |  |  |  |  |
| Clc1ccc(COC(Cn2ccnc2)c2ccc(Cl)cc2Cl)cc1 (stereo not given) [econazole] | 0 | 0 | 0 | 1.5 | > 10 | > 10 | > 10 |  | 104 | 108 | 106 | 102 | 94.7 | 102 | 97.8 | 95.6 | 95.3 | 90.7 | 104 | 103 | 103 | 102 | 98.5 | 100 | 98.1 | 102 | 97.3 | 72.6 | 2.5 | 94.5 | 90.1 | 97 | 90.9 | 68.6 |  |
| C[n+]1ccc(C(=O)NCc2ccccc2)cc1 [enisamium-iodide] |  | 0 | 0 | 2.8 |  | > 10 | > 10 | > 10 |  |  |  |  |  | 104 | 103 | 98.9 | 103 | 103 | 96.5 | 100 | 91 | 108 | 102 | 88.7 | 96.3 | 99.7 | 79.7 | 81.7 | 0 | 98.8 | 103 | 87.7 | 94.5 | 99.1 | > 10 |
| CC(C)C[C@H](NC(=O)CNC(=O)[C@H](Cc1ccc(O)cc1)NC(=O)[C@H](CO)NC(=O)[C@H](Cc1c[nH]c2ccccc12)NC(=O)[C@H](Cc1cnc[nH]1)NC(=O)[C@@H]1CCC(=O)N1)C(=O)N[C@@H](CCCNC(=N)N)C(=O)N1CCC[C@H]1C(=O)NCC(N)=O [gonadorelin] |  | 0 | 0 | 0 |  | > 10 | > 10 | > 10 |  |  |  |  |  | 97.4 | 100 | 98.4 | 98 | 97.7 | 94.7 | 98.8 | 92.2 | 86.9 | 97.5 | 108 | 86.8 | 102 | 101 | 96.2 | 0 | 106 | 96 | 100 | 99.7 | 100 | > 10 |
| CC(C)=CCC[C@](C)(O)[C@H]1CC[C@]2(C)[C@@H]1[C@H](O)C[C@@H]1[C@@]3(C)CC[C@H](O)C(C)(C)[C@@H]3[C@@H](O)C[C@]12C [hemomex-s] | 0 | 0 | 0 |  | > 10 | > 10 | > 10 |  | 96.1 | 93.9 | 96.6 | 98.8 | 99.2 | 97.4 | 101 | 99.8 | 101 | 100 | 105 | 109 | 112 | 105 | 93.4 |  |  |  |  |  | 0 | 113 | 106 | 103 | 111 | 96.9 | > 10 |
| COc1ccc(CCN)cc1OC [homoveratrylamine] | 0 | 0 | 0 | 0 | > 10 | > 10 | > 10 | > 10 | 108 | 106 | 94.9 | 97.5 | 96.4 | 94.6 | 96.1 | 97.6 | 97.3 | 101 | 100 | 85.6 | 113 | 98.2 | 95.7 | 110 | 103 | 98.2 | 108 | 115 | 2.9 | 89.4 | 77.6 | 110 | 79.4 | 73 |  |
| O=c1[nH]c(=O)n([C@H]2C[C@H](O)[C@@H](CO)O2)cc1I [idoxuridine] | 0.3 | 0 | 0 | 2.8 | > 10 | > 10 | > 10 |  | 99.1 | 104 | 97.8 | 99.8 | 84.5 | 98.4 | 103 | 101 | 106 | 99.6 | 106 | 96.6 | 110 | 93 | 96.5 | 101 | 104 | 95.8 | 94 | 62.5 | 0 | 101 | 101 | 94 | 105 | 95.9 | > 10 |
| c1nc(CC2CCNCC2)c[nH]1 [immepip] |  | 0 | 0 | 0 |  | > 10 | > 10 | > 10 |  |  |  |  |  | 98.1 | 99.8 | 97.2 | 93.3 | 97.9 | 96.7 | 91.6 | 111 | 111 | 99.9 | 108 | 107 | 103 | 111 | 95.7 | 0 | 113 | 101 | 98.6 | 98.8 | 102 | > 10 |
| COc1ccc2c(c1)c(CC(=O)O)c(C)n2C(=O)c1ccc(Cl)cc1 [indomethacin] |  | 0 | 1 | 0 |  | > 10 | > 10 | > 10 |  |  |  |  |  | 98.9 | 102 | 97.8 | 101 | 99.7 | 99.2 | 96.4 | 90.7 | 84.3 | 91.8 | 105 | 100 | 108 | 94.7 | 95 | 0 | 95.6 | 98.6 | 101 | 98.4 | 94.6 | > 10 |
| COc1ccc(OC)c(C(O)C(C)N)c1 (stereo not given) [methoxamine] | 0 |  | 0 |  | > 10 |  | > 10 |  | 109 | 107 | 99.4 | 102 | 102 |  |  |  |  |  | 93.7 | 99.6 | 103 | 100 | 109 |  |  |  |  |  |  |  |  |  |  |  |  |
| CN(c1nccc(=O)[nH]1)C1CCN(c2nc3ccccc3n2Cc2ccc(F)cc2)CC1 [mizolastine] | 0 | 0 | 0 |  | > 10 | > 10 | > 10 |  | 97.5 | 101 | 98.6 | 97.8 | 107 | 101 | 98.5 | 101 | 103 | 102 | 103 | 104 | 99.5 | 102 | 108 |  |  |  |  |  | 0 | 89.5 | 99.9 | 98 | 100 | 98.3 | > 10 |
| [I-].[K+] [potassium-iodide] | 0 |  | 0 |  | > 10 |  | > 10 |  | 102 | 99.7 | 103 | 101 | 106 |  |  |  |  |  | 99.9 | 111 | 96.2 | 102 | 95.1 |  |  |  |  |  |  |  |  |  |  |  |  |
| CC1=C(/C=C/C(C)=C/C=C/C(C)=C/C=O)C(C)(C)CCC1 [retinaldehyde] | 0 | 0 | 0.6 |  | > 10 | > 10 | > 10 |  | 99.2 | 95.1 | 95.2 | 95.3 | 99.9 | 104 | 107 | 101 | 99.4 | 92.9 | 98.9 | 108 | 104 | 88.8 | 87.4 |  |  |  |  |  | 0 | 100 | 104 | 89.5 | 97.8 | 90.4 | > 10 |
| Cc1c(C(=O)Nc2ccc(N3C[C@@H](C)O[C@@H](C)C3)nc2)cccc1-c1ccc(OC(F)(F)F)cc1 [sonidegib] | 0.2 | 0.3 | 0 | 1.4 | > 10 | > 10 | > 10 |  | 105 | 109 | 102 | 104 | 84 | 99.5 | 94.1 | 102 | 96.5 | 87.3 | 109 | 98.4 | 92.7 | 97.9 | 97.2 | 104 | 96.8 | 99.7 | 98.9 | 71.3 | 0.7 | 102 | 98.8 | 95.7 | 98 | 81.4 | > 10 |
| Cn1nnc(-c2ccc(-c3ccc(N4C[C@H](CO)OC4=O)cc3F)cn2)n1 [tedizolid] | 0 | 0 | 0 | 5.1 | > 10 | > 10 | > 10 |  | 94 | 99.6 | 98.3 | 101 | 92.9 | 101 | 102 | 96.7 | 96.3 | 94.1 | 103 | 95.4 | 99.6 | 108 | 106 | 111 | 95.4 | 99.5 | 76.9 | 55.7 | 0.6 | 113 | 106 | 94.2 | 93.3 | 82.2 | > 10 |
| COc1cc([C@@H]2c3cc4c(cc3[C@@H](O[C@@H]3O[C@@H]5CO[C@@H](c6cccs6)O[C@H]5[C@H](O)[C@H]3O)[C@H]3COC(=O)[C@H]23)OCO4)cc(OC)c1O [teniposide] | 4.6 | 9.4 | 12.6 | 21.5 |  | 1.37 | 0.129 | 0.0761 | 106 | 92.8 | 100 | 75 | 64 | 99.3 | 94.4 | 92.7 | 66.5 | 4.2 | 91.1 | 92.6 | 75.8 | 47.2 | 40.6 | 89.6 | 86.1 | 47.3 | 27.8 | 9.9 | 7.8 | 108 | 95.7 | 100 | 71 | 29 | 1.16 |
